This passage reports Kd and EC50 results from US20090098130A1, “GLUCAGON-LIKE PROTEIN-1 RECEPTOR (GLP-1R) AGONIST COMPOUNDS” (priority 2007, published 2009).

pEC50, pKd: −log10 of the molar value. Non-standard residues stand in square brackets, D forms with d. Residues, ends and D or L forms follow the SMILES beside them. Aib = CC(C)(N)C(=O)O

For one experiment, the target named is h38C2. To be noted: competition ELISA against immobilized BSA-conjugated β-diketone 1, read-out: apparent equilibrium dissociation constant; cited from earlier work.
Another experiment deals with m38C2. To be noted: competition ELISA against immobilized BSA-conjugated β-diketone 1, read-out: apparent equilibrium dissociation constant; cited from earlier work.
The next experiment concerns pancreatic β cells. Description: glucose-stimulated insulin secretion (GSIS) assay. The format is cell-based. To be noted: GA targeting peptide; insulin secretion from pancreatic β cell cultures in vitro with glucose. The protocol: Briefly, glucose and GA targeting peptide was added at various concentrations to pancreatic β cell cultures, and insulin secretion was detected by measuring insulin levels over time. EC50 was calculated for each peptide.
The ability of these GA targeting agent-linker conjugates to stimulate […] secretion in vitro was measured using the GSIS assay described in Example 27. […] Each of these peptides contained a side-chain modified Lys residue according to the scheme illustrated in FIG. 30 at a different position.

`CC(=O)CC(=O)CCc1ccccc1` [β-diketone 3]: the figures for the pKd at h38C2 and on m38C2 were 6.00 and 6.37, respectively.
Turning to `CC(=O)CC(C)=O` [β-diketone 2], the pKd was 5.12 at h38C2 and 4.42 on m38C2.
Take `CC[C@H](C)[C@H](NC(=O)[C@H](Cc1ccccc1)NC(=O)[C@H](CCC(=O)O)NC(=O)[C@H](CCCCN)NC(=O)[C@H](C)NC(=O)[C@H](C)NC(=O)[C@H](CCC(N)=O)NC(=O)[C@H](CCC(=O)O)NC(=O)[C@H](CCC(=O)O)NC(=O)[C@H](CC(C)C)NC(=O)[C@H](Cc1ccc(O)cc1)NC(=O)[C@H](CO)NC(=O)[C@H](CO)NC(=O)[C@@H](NC(=O)[C@H](CC(=O)O)NC(=O)[C@H](CO)NC(=O)[C@@H](NC(=O)[C@H](Cc1ccccc1)NC(=O)[C@@H](NC(=O)CNC(=O)[C@H](CCC(=O)O)NC(=O)C(C)(C)NC(=O)[C@@H](N)Cc1c[nH]cn1)[C@@H](C)O)[C@@H](C)O)C(C)C)C(=O)N[C@@H](C)C(=O)N[C@@H](Cc1c[nH]c2ccccc12)C(=O)N[C@@H](CC(C)C)C(=O)N[C@H](C(=O)N[C@@H](CCCCN)C(=O)NC(C)(C)C(=O)N[C@@H](CCCNC(=N)N)C(N)=O)C(C)C` [SEQ ID NO: 45] (H-H[Aib]EGTFTSDVSSYLEEQAAKEFIAWLVK[Aib]R-NH2): the pEC50 in the experiment with pancreatic β cells was above 5.00.
Still for that read-out and setting: in the case of `CC[C@H](C)[C@H](NC(=O)[C@H](Cc1ccccc1)NC(=O)[C@H](CCC(=O)O)NC(=O)[C@H](CCCCN)NC(=O)[C@H](C)NC(=O)[C@H](C)NC(=O)[C@H](CCC(N)=O)NC(=O)CNC(=O)[C@H](CCC(=O)O)NC(=O)[C@H](Cc1c[nH]c2ccccc12)NC(=O)[C@H](Cc1ccc(O)cc1)NC(=O)[C@H](CO)NC(=O)[C@H](CO)NC(=O)[C@@H](NC(=O)[C@H](CC(=O)O)NC(=O)[C@H](CO)NC(=O)[C@@H](NC(=O)[C@H](Cc1ccccc1)NC(=O)[C@@H](NC(=O)CNC(=O)[C@H](CCC(=O)O)NC(=O)C(C)(C)NC(=O)[C@@H](N)Cc1c[nH]cn1)[C@@H](C)O)[C@@H](C)O)C(C)C)C(=O)N[C@@H](C)C(=O)N[C@@H](Cc1c[nH]c2ccccc12)C(=O)N[C@@H](CC(C)C)C(=O)N[C@H](C(=O)N[C@@H](CCCCN)C(=O)NC(C)(C)C(=O)N[C@@H](CCCNC(=N)N)C(N)=O)C(C)C` [SEQ ID NO: 44] (H-H[Aib]EGTFTSDVSSYWEGQAAKEFIAWLVK[Aib]R-NH2) it was above 5.00; in that of `CC[C@H](C)[C@H](NC(=O)[C@H](Cc1ccccc1)NC(=O)[C@H](CCC(=O)O)NC(=O)[C@H](CCCCN)NC(=O)[C@@H](NC(=O)[C@H](C)NC(=O)[C@H](CCC(N)=O)NC(=O)[C@H](CCC(=O)O)NC(=O)[C@H](CCC(=O)O)NC(=O)[C@H](CC(C)C)NC(=O)[C@H](Cc1ccc(O)cc1)NC(=O)[C@H](CO)NC(=O)[C@H](CO)NC(=O)[C@@H](NC(=O)[C@H](CC(=O)O)NC(=O)[C@H](CO)NC(=O)[C@@H](NC(=O)[C@H](Cc1ccccc1)NC(=O)[C@@H](NC(=O)CNC(=O)[C@H](CCC(=O)O)NC(=O)C(C)(C)NC(=O)[C@@H](N)Cc1c[nH]cn1)[C@@H](C)O)[C@@H](C)O)C(C)C)C(C)C)C(=O)N[C@@H](C)C(=O)N[C@@H](Cc1c[nH]c2ccccc12)C(=O)N[C@@H](CC(C)C)C(=O)N[C@H](C(=O)N[C@@H](CCCNC(=N)N)C(=O)NC(C)(C)C(=O)N[C@@H](CCCNC(=N)N)C(N)=O)[C@@H](C)CC` [SEQ ID NO: 61] (H-H[Aib]EGTFTSDVSSYLEEQAVKEFIAWLIR[Aib]R-NH2), above 5.00; in that of `CC[C@H](C)[C@H](NC(=O)[C@H](Cc1ccccc1)NC(=O)[C@H](CCC(=O)O)NC(=O)[C@H](CCCCN)NC(=O)[C@H](CC(C)C)NC(=O)[C@H](C)NC(=O)[C@H](CCC(N)=O)NC(=O)CNC(=O)[C@H](CCC(=O)O)NC(=O)[C@H](CC(C)C)NC(=O)[C@H](Cc1ccc(O)cc1)NC(=O)[C@H](CO)NC(=O)[C@H](CO)NC(=O)[C@@H](NC(=O)[C@H](CC(=O)O)NC(=O)[C@H](CO)NC(=O)[C@@H](NC(=O)[C@H](Cc1ccccc1)NC(=O)[C@@H](NC(=O)CNC(=O)[C@H](CCC(=O)O)NC(=O)C(C)(C)NC(=O)[C@@H](N)Cc1c[nH]cn1)[C@@H](C)O)[C@@H](C)O)C(C)C)C(=O)N[C@@H](C)C(=O)N[C@@H](Cc1c[nH]c2ccccc12)C(=O)N[C@@H](CC(C)C)C(=O)N[C@H](C(=O)N[C@@H](CCCCN)C(=O)NC(C)(C)C(=O)N[C@@H](CCCNC(=N)N)C(N)=O)C(C)C` [SEQ ID NO: 50] (H-H[Aib]EGTFTSDVSSYLEGQALKEFIAWLVK[Aib]R-NH2), above 5.00.
